From ChEMBL document CHEMBL1201862, “PubChem BioAssay data set” (2004)
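Cells were grown in 96-well plates and exposed to each compound for 48 hours at five concentrations; endpoints were interpolated linearly between bracketing concentrations, or set to the highest concentration if not reached. GI50 marks 50% less growth.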 Calls of active or inactive are those of the source. No stated cut-off is given here; in the data, active = GI50 up to about 1.1 µM and inactive = higher.

Tests used:
Experiment in all cases: NCI tumour cell line growth inhibition, 48 h
SK-MEL-28 = tested on: SK-MEL-28
EKVX = tested on: EKVX
M19-MEL = tested on: M19-MEL
M14 = tested on: M14
KM12 = tested on: KM12
A549 = tested on: A549
TK-10 = tested on: TK-10
SN12C = tested on: SN12C
OVCAR-8 = tested on: OVCAR-8
SW-620 = tested on: SW-620
COLO 205 = tested on: COLO 205
LOX IMVI = tested on: LOX IMVI
HOP-62 = tested on: HOP-62
UO-31 = tested on: UO-31
CCRF-CEM = tested on: CCRF-CEM
HCT-116 = tested on: HCT-116
A498 = tested on: A498
OVCAR-5 = tested on: OVCAR-5
HCC 2998 = tested on: HCC 2998
MOLT-4 = tested on: MOLT-4
NCI-H226 = tested on: NCI-H226
SNB-78 = tested on: SNB-78
UACC-62 = tested on: UACC-62
SF-539 = tested on: SF-539
786-0 = tested on: 786-0
U-251 = tested on: U-251
SF-295 = tested on: SF-295
SK-MEL-5 = tested on: SK-MEL-5
HOP-18 = tested on: HOP-18
CAKI-1 = tested on: CAKI-1
HL-60 = tested on: HL-60
RXF 393 = tested on: RXF 393
DMS-114 = tested on: DMS-114
IGROV-1 = tested on: IGROV-1
RXF 631 = tested on: RXF 631
SNB-19 = tested on: SNB-19
HOP-92 = tested on: HOP-92
Malme-3M = tested on: Malme-3M
SK-MEL-2 = tested on: SK-MEL-2
RPMI-8226 = tested on: RPMI-8226
HT-29 = tested on: HT-29
ACHN = tested on: ACHN
K562 = tested on: K562
NCI-H460 = tested on: NCI-H460
SR = tested on: SR
NCI-H23 = tested on: NCI-H23
NCI-H522 = tested on: NCI-H522
LXFL 529 = tested on: LXFL 529
SK-OV-3 = tested on: SK-OV-3
SF-268 = tested on: SF-268
OVCAR-4 = tested on: OVCAR-4
OVCAR-3 = tested on: OVCAR-3
HCT-15 = tested on: HCT-15
KM-20L2 = tested on: KM-20L2
DLD-1 = tested on: DLD-1
XF498 = tested on: XF498
SNB-75 = tested on: SNB-75
UACC-257 = tested on: UACC-257
DMS-273 = tested on: DMS-273

`CC1=C(C(=O)Nc2ccccc2)C(c2ccc(C(C)C)cc2)C(C(=O)Nc2ccccc2)=C(C)N1` was tested, and the GI50 (SK-MEL-28) was 22.3 µM (inactive), the GI50 (EKVX) was 25.3 µM (inactive) and the GI50 (M19-MEL) was 15.6 µM (inactive). For the same molecule, the GI50 (M14) was 18.2 µM (inactive), the GI50 (KM12) was 22.2 µM (inactive) and the GI50 (A549) was 16.5 µM (inactive). For the same molecule, the GI50 (TK-10) was 48.2 µM (inactive), the GI50 (SN12C) was 13.6 µM (inactive) and the GI50 (OVCAR-8) was 22.3 µM (inactive). For the same molecule, the GI50 (SW-620) was 17.2 µM (inactive), the GI50 (COLO 205) was 12.9 µM (inactive) and the GI50 (LOX IMVI) was 15 µM (inactive). For the same molecule, the GI50 (HOP-62) was 25.3 µM (inactive), the GI50 (UO-31) was 12.5 µM (inactive) and the GI50 (CCRF-CEM) was 13.3 µM (inactive). The GI50 (HCT-116) was 12.7 µM (inactive), the GI50 (A498) was 24 µM (inactive) and the GI50 (OVCAR-5) was 17.3 µM (inactive). For the same molecule, the GI50 (HCC 2998) was 7.19 µM (inactive), the GI50 (MOLT-4) was 4.86 µM (inactive) and the GI50 (NCI-H226) was 21.3 µM (inactive). The GI50 (SNB-78) was 31.5 µM (inactive), the GI50 (UACC-62) was 13.6 µM (inactive) and the GI50 (SF-539) was 12.8 µM (inactive). For the same molecule, the GI50 (786-0) was 15 µM (inactive), the GI50 (U-251) was 16 µM (inactive) and the GI50 (SF-295) was 37.9 µM (inactive). The GI50 (SK-MEL-5) was 12.9 µM (inactive), the GI50 (HOP-18) was 19.1 µM (inactive) and the GI50 (CAKI-1) was 21.9 µM (inactive). For the same molecule, the GI50 (HL-60) was 9.59 µM (inactive), the GI50 (RXF 393) was 11.8 µM (inactive) and the GI50 (DMS-114) was 7.26 µM (inactive). For the same molecule, the GI50 (IGROV-1) was 23.2 µM (inactive), the GI50 (RXF 631) was 18.2 µM (inactive) and the GI50 (SNB-19) was 29.4 µM (inactive). The GI50 (HOP-92) was 14.2 µM (inactive), the GI50 (Malme-3M) was 15.5 µM (inactive) and the GI50 (SK-MEL-2) was 13.8 µM (inactive). The GI50 (RPMI-8226) was 6.71 µM (inactive), the GI50 (HT-29) was 15.2 µM (inactive) and the GI50 (ACHN) was 17.3 µM (inactive). For the same molecule, the GI50 (K562) was 12.1 µM (inactive), the GI50 (NCI-H460) was 18.9 µM (inactive) and the GI50 (SR) was 10.6 µM (inactive). For the same molecule, the GI50 (NCI-H23) was 20 µM (inactive), the GI50 (NCI-H522) was 15.1 µM (inactive) and the GI50 (LXFL 529) was 16.7 µM (inactive). For the same molecule, the GI50 (SK-OV-3) was 22.9 µM (inactive), the GI50 (SF-268) was 22.3 µM (inactive) and the GI50 (OVCAR-4) was 28.5 µM (inactive). For the same molecule, the GI50 (OVCAR-3) was 18.2 µM (inactive), the GI50 (HCT-15) was 14.8 µM and the GI50 (KM-20L2) was 15.2 µM (inactive). The GI50 (DLD-1) was 17.5 µM (inactive), the GI50 (XF498) was 13.1 µM (inactive) and the GI50 (SNB-75) was 18.7 µM (inactive).
In the case of `COC(=O)[C@H]1N[C@@H](C(=O)OC)C23CCC[C@H]2CC[C@]1(C(OC)OC)C3`, the GI50 (UACC-257) is reported as > 100 µM (inactive), the GI50 (SK-MEL-28) is reported as > 100 µM (inactive) and the GI50 (EKVX) is reported as > 100 µM (inactive). For the same molecule, the GI50 (M19-MEL) was > 100 µM (inactive), the GI50 (M14) was > 100 µM (inactive) and the GI50 (KM12) was > 100 µM (inactive). For the same molecule, the GI50 (A549) was > 100 µM (inactive), the GI50 (TK-10) was > 100 µM (inactive) and the GI50 (SN12C) was > 100 µM (inactive). The GI50 (OVCAR-8) was > 100 µM (inactive), the GI50 (SW-620) was 56.2 µM (inactive) and the GI50 (COLO 205) was 87.7 µM (inactive). For the same molecule, the GI50 (LOX IMVI) was > 100 µM (inactive), the GI50 (HOP-62) was > 100 µM (inactive) and the GI50 (UO-31) was > 100 µM (inactive). The GI50 (CCRF-CEM) was > 100 µM (inactive), the GI50 (HCT-116) was > 100 µM (inactive) and the GI50 (A498) was > 100 µM (inactive). For the same molecule, the GI50 (OVCAR-5) was > 100 µM (inactive), the GI50 (HCC 2998) was > 100 µM (inactive) and the GI50 (MOLT-4) was > 100 µM (inactive). For the same molecule, the GI50 (NCI-H226) was > 100 µM (inactive), the GI50 (SNB-78) was > 100 µM (inactive) and the GI50 (UACC-62) was > 100 µM (inactive). The GI50 (SF-539) was > 100 µM (inactive), the GI50 (786-0) was 81.1 µM (inactive) and the GI50 (U-251) was > 100 µM (inactive). For the same molecule, the GI50 (SF-295) was > 100 µM (inactive), the GI50 (SK-MEL-5) was > 100 µM (inactive) and the GI50 (HOP-18) was > 100 µM (inactive). For the same molecule, the GI50 (CAKI-1) was > 100 µM (inactive), the GI50 (HL-60) was > 100 µM (inactive) and the GI50 (DMS-114) was > 100 µM (inactive). The GI50 (IGROV-1) was > 100 µM (inactive), the GI50 (SNB-19) was > 100 µM (inactive) and the GI50 (HOP-92) was > 100 µM (inactive). For the same molecule, the GI50 (Malme-3M) was > 100 µM (inactive), the GI50 (SK-MEL-2) was > 100 µM (inactive) and the GI50 (RPMI-8226) was > 100 µM (inactive). For the same molecule, the GI50 (HT-29) was > 100 µM (inactive), the GI50 (ACHN) was > 100 µM (inactive) and the GI50 (K562) was 73.6 µM (inactive). The GI50 (NCI-H460) was > 100 µM (inactive), the GI50 (NCI-H23) was > 100 µM (inactive) and the GI50 (DMS-273) was > 100 µM (inactive). For the same molecule, the GI50 (NCI-H522) was > 100 µM (inactive), the GI50 (LXFL 529) was > 100 µM (inactive) and the GI50 (SK-OV-3) was > 100 µM (inactive). For the same molecule, the GI50 (SF-268) was > 100 µM (inactive), the GI50 (OVCAR-4) was > 100 µM (inactive) and the GI50 (HCT-15) was greater than 100 µM. The GI50 (KM-20L2) was > 100 µM (inactive), the GI50 (DLD-1) was > 100 µM (inactive) and the GI50 (XF498) was > 100 µM (inactive). The GI50 (SNB-75) was > 100 µM (inactive).
